Data reported in the NIST ThermoML archive (doi:10.1016/j.jct.2015.03.021).

Tests used:
[1] = 101.33 kPa, Liquid, Vibrating tube method
[2] = relative permittivity at various frequencies (dimensionless); settings: 100 kPa, Liquid, Frequency=1 MHz, Parallel plate capacitor
[3] = excess molar enthalpy (molar enthalpy of mixing); xn = mol fraction of the nth substance listed; settings: 100 kPa, Liquid, Calvet calorimetry

CC(C)C(C)O (stereo not given) [3-methyl-2-butanol]
Settings	mass density, [1] [kg/m3]	relative permittivity, [2]
298.15 K	813.09	11.98
308.15 K	804.35	10.78

CCC(O)CC [3-pentanol] + CCCCOCCCC
[3]
Settings	excess molar enthalpy [kcal/mol]
298.15 K, x2 = 0.0979	0.0951
298.15 K, x2 = 0.1702	0.159
298.15 K, x2 = 0.2558	0.219
298.15 K, x2 = 0.3242	0.257
298.15 K, x2 = 0.4033	0.283
298.15 K, x2 = 0.4684	0.302
298.15 K, x2 = 0.5438	0.314
298.15 K, x2 = 0.6374	0.311
298.15 K, x2 = 0.7023	0.3
298.15 K, x2 = 0.7739	0.269
298.15 K, x2 = 0.8554	0.214
298.15 K, x2 = 0.9278	0.129
308.15 K, x2 = 0.0991	0.0968
308.15 K, x2 = 0.1692	0.157
308.15 K, x2 = 0.235	0.202
308.15 K, x2 = 0.3202	0.25
308.15 K, x2 = 0.3985	0.276
308.15 K, x2 = 0.5414	0.306
308.15 K, x2 = 0.6464	0.306
308.15 K, x2 = 0.7326	0.29
308.15 K, x2 = 0.811	0.246
308.15 K, x2 = 0.8986	0.182
308.15 K, x2 = 0.9603	0.0817

CC(C)CCO [3-methylbutan-1-ol] + CCCCOCCCC
[3]
Settings	excess molar enthalpy [kcal/mol]
298.15 K, x2 = 0.092	0.0552
298.15 K, x2 = 0.1608	0.0932
298.15 K, x2 = 0.2389	0.132
298.15 K, x2 = 0.3161	0.16
298.15 K, x2 = 0.3993	0.187
298.15 K, x2 = 0.4694	0.204
298.15 K, x2 = 0.5458	0.216
298.15 K, x2 = 0.6389	0.221
298.15 K, x2 = 0.7088	0.211
298.15 K, x2 = 0.776	0.194
298.15 K, x2 = 0.8626	0.154
298.15 K, x2 = 0.9423	0.0837
308.15 K, x2 = 0.0836	0.054
308.15 K, x2 = 0.1547	0.0951
308.15 K, x2 = 0.2348	0.138
308.15 K, x2 = 0.3248	0.176
308.15 K, x2 = 0.4249	0.202
308.15 K, x2 = 0.4894	0.22
308.15 K, x2 = 0.5775	0.228
308.15 K, x2 = 0.6519	0.226
308.15 K, x2 = 0.7302	0.214
308.15 K, x2 = 0.787	0.194
308.15 K, x2 = 0.8553	0.161
308.15 K, x2 = 0.9681	0.0564

CCCC(C)O (stereo not given) [pentan-2-ol]
Settings	mass density, [1] [kg/m3]	relative permittivity, [2]
298.15 K	806.11	13.54
308.15 K	798	12.08

CCC(C)(C)O [2-methylbutan-2-ol] + CCCCOCCCC
excess molar enthalpy [kcal/mol], [3]
Settings	298.15 K	308.15 K
x2 = 0.0916	0.0557	–
x2 = 0.0919	–	0.065
x2 = 0.1591	0.098	–
x2 = 0.1603	–	0.108
x2 = 0.2403	0.141	0.155
x2 = 0.3201	0.18	–
x2 = 0.3244	–	0.188
x2 = 0.3985	0.21	–
x2 = 0.4034	–	0.217
x2 = 0.4755	0.234	–
x2 = 0.476	–	0.244
x2 = 0.5445	0.249	–
x2 = 0.5541	–	0.262
x2 = 0.6392	0.258	–
x2 = 0.6992	0.255	–
x2 = 0.702	–	0.272
x2 = 0.7733	0.237	–
x2 = 0.7747	–	0.258
x2 = 0.8569	0.199	–
x2 = 0.8671	–	0.204
x2 = 0.9322	–	0.129
x2 = 0.933	0.123	–

CCC(C)(C)O [2-methylbutan-2-ol]
Settings	mass density, [1] [kg/m3]	relative permittivity, [2]
298.15 K	804.31	5.63
308.15 K	795.16	5.23

CCCC(C)O (stereo not given) [pentan-2-ol] + CCCCOCCCC
[3]
Settings	excess molar enthalpy [kcal/mol]
298.15 K, x2 = 0.0974	0.0839
298.15 K, x2 = 0.1685	0.136
298.15 K, x2 = 0.2474	0.185
298.15 K, x2 = 0.3335	0.225
298.15 K, x2 = 0.397	0.243
298.15 K, x2 = 0.5096	0.268
298.15 K, x2 = 0.549	0.27
298.15 K, x2 = 0.6386	0.268
298.15 K, x2 = 0.705	0.255
298.15 K, x2 = 0.7803	0.232
298.15 K, x2 = 0.8623	0.193
298.15 K, x2 = 0.9322	0.118
308.15 K, x2 = 0.0841	0.0758
308.15 K, x2 = 0.1634	0.138
308.15 K, x2 = 0.2305	0.182
308.15 K, x2 = 0.3156	0.225
308.15 K, x2 = 0.4161	0.264
308.15 K, x2 = 0.4834	0.284
308.15 K, x2 = 0.5759	0.288
308.15 K, x2 = 0.6314	0.286
308.15 K, x2 = 0.7299	0.265
308.15 K, x2 = 0.8144	0.234
308.15 K, x2 = 0.908	0.161
308.15 K, x2 = 0.964	0.0746

CCCCCO [pentan-1-ol]
Settings	mass density, [1] [kg/m3]	relative permittivity, [2]
298.15 K	810.89	15
308.15 K	803.7	13.51

CCC(C)CO (stereo not given) [2-methyl-1-butanol] + CCCCOCCCC
[3]
Settings	excess molar enthalpy [kcal/mol]
298.15 K, x2 = 0.0954	0.0664
298.15 K, x2 = 0.162	0.113
298.15 K, x2 = 0.2536	0.165
298.15 K, x2 = 0.3156	0.193
298.15 K, x2 = 0.4007	0.221
298.15 K, x2 = 0.4806	0.241
298.15 K, x2 = 0.5445	0.246
298.15 K, x2 = 0.6338	0.248
298.15 K, x2 = 0.7017	0.237
298.15 K, x2 = 0.7832	0.211
298.15 K, x2 = 0.8542	0.176
298.15 K, x2 = 0.9335	0.101
308.15 K, x2 = 0.0798	0.0595
308.15 K, x2 = 0.152	0.111
308.15 K, x2 = 0.2539	0.168
308.15 K, x2 = 0.3152	0.198
308.15 K, x2 = 0.4069	0.224
308.15 K, x2 = 0.4701	0.242
308.15 K, x2 = 0.5703	0.251
308.15 K, x2 = 0.6528	0.249
308.15 K, x2 = 0.7263	0.235
308.15 K, x2 = 0.8093	0.202
308.15 K, x2 = 0.897	0.147
308.15 K, x2 = 0.9553	0.07

CCC(C)CO (stereo not given) [2-methyl-1-butanol]
Settings	mass density, [1] [kg/m3]	relative permittivity, [2]
298.15 K	814.98	15.52
308.15 K	807.63	14.07

CCC(O)CC [3-pentanol]
Settings	mass density, [1] [kg/m3]	relative permittivity, [2]
298.15 K	815.62	13.21
308.15 K	806.9	11.39

CC(C)C(C)O (stereo not given) [3-methyl-2-butanol] + CCCCOCCCC
[3]
Settings	excess molar enthalpy [kcal/mol]
298.15 K, x2 = 0.0959	0.0882
298.15 K, x2 = 0.1639	0.144
298.15 K, x2 = 0.2508	0.204
298.15 K, x2 = 0.3274	0.241
298.15 K, x2 = 0.3977	0.263
298.15 K, x2 = 0.4693	0.279
298.15 K, x2 = 0.552	0.289
298.15 K, x2 = 0.6335	0.287
298.15 K, x2 = 0.7081	0.273
298.15 K, x2 = 0.7757	0.248
298.15 K, x2 = 0.8645	0.194
298.15 K, x2 = 0.9394	0.106
308.15 K, x2 = 0.0813	0.0648
308.15 K, x2 = 0.155	0.118
308.15 K, x2 = 0.2572	0.181
308.15 K, x2 = 0.3229	0.233
308.15 K, x2 = 0.4119	0.263
308.15 K, x2 = 0.4817	0.281
308.15 K, x2 = 0.5473	0.288
308.15 K, x2 = 0.6348	0.287
308.15 K, x2 = 0.7226	0.269
308.15 K, x2 = 0.8083	0.235
308.15 K, x2 = 0.8908	0.168
308.15 K, x2 = 0.9786	0.0538

CC(C)CCO [3-methylbutan-1-ol]
Settings	mass density, [1] [kg/m3]	relative permittivity, [2]
298.15 K	804.24	15.09
308.15 K	796.95	13.73
